Values after ≈ are worked out from the molar mass of the structure shown. Marks after values point to notes of the source that are not given here.
Columns and labels:
PBPA2 (PBP4) [1] = molecular target: T1, PBPA2 (PBP4) (Listeria monocytogenes, UniProt Q8Y547); experiment: Fluorescent antibiotic binding assay, whole cells; conditions: read-out: Boc-FL Kd50, 30 min at 37°C, estimated from band fluorescence as a function of Boc-FL concentration
Procedure: (§1) PBPs form a covalent complex with β-lactam antibiotics. When fluorescent β-lactams are employed, these proteins can be visualized immediately following SDS-PAGE [17]. Total protein from whole cells or a cell wall extract of L. monocytogenes EGD were incubated with different concentrations of Boc-FL, Bocillin-650 (Boc-650) or Ampicillin-Alexa430 (Amp-430) for 30 min at 37°C. The highest affinity binding was obtained with Boc-FL and bands identified using this compound in the whole cell assay are shown in Figure 1. PBPs A1, B2, B1, A2, B3, D1, C1 and C2 were also identified with Boc-650 and Amp-430 (data not shown). Two types of non-specific band were also observed (lane 1, 0 μM Boc-FL) and they represent the natural intrinsic fluorescence of other proteins in the cell extract. However, the bands that are absent in lane 8 (ampicillin 100 μg/ml, 50 μM Boc-FL) compared with lane 7 (50 μM Boc-FL) represent specific PBPs. Those bands that completely disappeared (PBPB1, PBPD1), partially disappeared (PBPA1, PBPB2, PBPA2 and PBPB3) or remained present (PBPC1 and PBPC2) reflect total, partial and no binding of ampicillin, respectively. The results of an experiment examining saturation with 50 μM Boc-FL, the binding capacity of each PBP for Boc-FL and the affinity of the PBPs for ampicillin (Amp) are presented in Table 2. These assays involved incubation of whole cell with ampicillin followed by a similar incubation with Boc-FL. Therefore, only those PBPs with no or low affinity for ampicillin would be able to bind Boc-FL during the second incubation. The deacylation rate for the PBPs is actually extremely low, which permitted their detection in the gel for several hours after binding.
(§2) Figure 1 Complete set of PBPs identified with Boc-FL in whole cells of L. monocytogenes. Samples of whole cells (100 μg of total protein) were labeled with Boc-FL at concentrations of 0 (1), 0.5 (2), 1 (3), 2.5 (4), 5 (5), 10 (6), 50 μM (7) and 50 μM plus 100 μg/ml ampicillin (8). Labeled bands were detected directly on the gel, quantified, and their molecular mass estimated. The affinity of each band for Boc-FL (ID50) was estimated from their fluorescence as a function of the concentration of Boc-FL. The name of the PBP corresponding to each band is indicated on the right, while the positions of molecular weight markers (bars) and unspecific bands (arrowheads) are shown on the left.
(§3) Total whole cell proteins or purified recombinant protein resuspended in 50 mM NaPi buffer, pH 7.0 were labeled by incubation at 37°C for 30 min with different concentrations of Boc-FL (Molecular Probes), Boc-650 (Molecular Probes) or Amp-430 (prepared in the laboratory by coupling ampicillin to Alexa-430), and then separated on a 10% acrylamide, 3.3% cross-linkage SDS-PAGE gel. To avoid degradation of the fluorescent β-lactam antibiotics by β-lactamases, samples were incubated at 37°C with clavulanic acid at a final concentration of 10 μg/ml or EDTA at a final concentration of 10 mM for 30 min before labeling, where appropriate. Competition experiments were carried out by preincubation of the samples with ampicillin (100 μg/ml) for 30 min at 37°C, before adding the fluorescent antibiotic. […] PBPs were visualized directly on the polyacryloamide gel by fluorescence using a Typhoon 9410 imager (Amersham Biosciences) with excitation wavelengths of 588, 633 or 457 nm and emission filters 520BP40, 670BP30 or 555BP20 for Boc-FL, Boc-650 and Amp-430, respectively.

PBPB2 (PBP2) [2] = molecular target: T2, PBPB2 (PBP2) (Listeria monocytogenes, UniProt Q8Y5L8); experiment: Fluorescent antibiotic binding assay, whole cells; conditions: read-out: Boc-FL Kd50, 30 min at 37°C, estimated from band fluorescence as a function of Boc-FL concentration
T2 sequence (Q8Y5L8 entry or part of it): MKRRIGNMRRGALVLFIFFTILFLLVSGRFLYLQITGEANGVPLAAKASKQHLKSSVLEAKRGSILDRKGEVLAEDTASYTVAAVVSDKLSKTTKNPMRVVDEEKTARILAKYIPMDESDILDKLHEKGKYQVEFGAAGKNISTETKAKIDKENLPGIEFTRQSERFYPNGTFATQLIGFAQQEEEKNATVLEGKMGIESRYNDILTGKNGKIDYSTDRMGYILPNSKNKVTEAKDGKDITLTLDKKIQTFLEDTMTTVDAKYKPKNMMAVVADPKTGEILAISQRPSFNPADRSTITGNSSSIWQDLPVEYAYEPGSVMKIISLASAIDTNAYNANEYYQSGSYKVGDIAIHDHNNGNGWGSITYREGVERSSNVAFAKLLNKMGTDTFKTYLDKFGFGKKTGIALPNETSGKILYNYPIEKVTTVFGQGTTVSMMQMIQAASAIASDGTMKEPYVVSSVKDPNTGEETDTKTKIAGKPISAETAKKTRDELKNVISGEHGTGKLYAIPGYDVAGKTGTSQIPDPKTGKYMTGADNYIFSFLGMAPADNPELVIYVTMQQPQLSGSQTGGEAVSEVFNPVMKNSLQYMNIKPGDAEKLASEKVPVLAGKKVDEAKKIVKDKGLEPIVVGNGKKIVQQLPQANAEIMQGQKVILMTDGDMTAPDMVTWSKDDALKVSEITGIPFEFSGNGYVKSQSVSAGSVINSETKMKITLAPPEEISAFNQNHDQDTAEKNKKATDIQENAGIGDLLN
Procedure: as §1, §2, §3

PBPB1 (PBP3) [3] = molecular target: T3, PBPB1 (PBP3) (Listeria monocytogenes, UniProt Q8Y763); experiment: Fluorescent antibiotic binding assay, whole cells; conditions: read-out: Boc-FL Kd50, 30 min at 37°C, estimated from band fluorescence as a function of Boc-FL concentration
T3 sequence (Q8Y763 entry or part of it): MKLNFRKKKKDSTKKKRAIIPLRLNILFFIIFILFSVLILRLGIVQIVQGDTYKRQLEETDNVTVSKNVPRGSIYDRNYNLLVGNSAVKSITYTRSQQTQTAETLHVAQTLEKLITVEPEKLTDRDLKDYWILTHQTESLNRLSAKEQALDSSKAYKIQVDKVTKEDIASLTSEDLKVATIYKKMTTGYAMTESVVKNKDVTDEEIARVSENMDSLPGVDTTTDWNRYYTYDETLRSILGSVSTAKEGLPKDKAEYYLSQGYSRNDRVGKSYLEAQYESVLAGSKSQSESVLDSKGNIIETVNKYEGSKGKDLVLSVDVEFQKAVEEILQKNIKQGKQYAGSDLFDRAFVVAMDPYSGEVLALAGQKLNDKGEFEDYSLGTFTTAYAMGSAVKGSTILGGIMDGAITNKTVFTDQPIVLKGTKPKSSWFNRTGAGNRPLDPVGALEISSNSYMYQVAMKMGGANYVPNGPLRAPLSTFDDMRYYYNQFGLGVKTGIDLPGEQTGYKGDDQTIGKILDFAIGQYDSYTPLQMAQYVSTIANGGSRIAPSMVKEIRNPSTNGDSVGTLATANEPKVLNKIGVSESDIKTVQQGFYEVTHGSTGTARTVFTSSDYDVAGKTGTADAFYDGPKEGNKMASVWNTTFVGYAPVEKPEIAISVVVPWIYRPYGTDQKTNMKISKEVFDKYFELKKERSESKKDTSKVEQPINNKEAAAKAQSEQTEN
Procedure: as §1, §2, §3

PBPD1 (PBP5) [4] = molecular target: T4, PBPD1 (PBP5) (Listeria monocytogenes, UniProt Q8Y3S7); experiment: Fluorescent antibiotic binding assay, whole cells; conditions: read-out: Boc-FL Kd50, 30 min at 37°C, estimated from band fluorescence as a function of Boc-FL concentration
T4 sequence (Q8Y3S7 entry or part of it): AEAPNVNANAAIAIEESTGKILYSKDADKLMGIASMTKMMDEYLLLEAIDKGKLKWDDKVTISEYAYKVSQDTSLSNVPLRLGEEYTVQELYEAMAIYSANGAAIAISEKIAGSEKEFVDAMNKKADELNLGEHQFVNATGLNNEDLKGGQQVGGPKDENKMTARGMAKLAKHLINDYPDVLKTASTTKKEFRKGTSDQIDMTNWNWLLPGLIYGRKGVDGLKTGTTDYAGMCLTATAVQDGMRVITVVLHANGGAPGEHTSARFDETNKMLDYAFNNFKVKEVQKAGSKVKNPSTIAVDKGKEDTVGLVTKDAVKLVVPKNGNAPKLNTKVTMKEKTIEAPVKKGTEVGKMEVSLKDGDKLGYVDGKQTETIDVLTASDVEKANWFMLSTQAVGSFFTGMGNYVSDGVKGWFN
Procedure: as §1, §2, §3

PBPA1 (PBP1) [5] = molecular target: T5, PBPA1 (PBP1) (Listeria monocytogenes, UniProt Q8Y610); experiment: Fluorescent antibiotic binding assay, whole cells; conditions: read-out: Boc-FL Kd50, 30 min at 37°C, estimated from band fluorescence as a function of Boc-FL concentration
T5 sequence (Q8Y610 entry or part of it): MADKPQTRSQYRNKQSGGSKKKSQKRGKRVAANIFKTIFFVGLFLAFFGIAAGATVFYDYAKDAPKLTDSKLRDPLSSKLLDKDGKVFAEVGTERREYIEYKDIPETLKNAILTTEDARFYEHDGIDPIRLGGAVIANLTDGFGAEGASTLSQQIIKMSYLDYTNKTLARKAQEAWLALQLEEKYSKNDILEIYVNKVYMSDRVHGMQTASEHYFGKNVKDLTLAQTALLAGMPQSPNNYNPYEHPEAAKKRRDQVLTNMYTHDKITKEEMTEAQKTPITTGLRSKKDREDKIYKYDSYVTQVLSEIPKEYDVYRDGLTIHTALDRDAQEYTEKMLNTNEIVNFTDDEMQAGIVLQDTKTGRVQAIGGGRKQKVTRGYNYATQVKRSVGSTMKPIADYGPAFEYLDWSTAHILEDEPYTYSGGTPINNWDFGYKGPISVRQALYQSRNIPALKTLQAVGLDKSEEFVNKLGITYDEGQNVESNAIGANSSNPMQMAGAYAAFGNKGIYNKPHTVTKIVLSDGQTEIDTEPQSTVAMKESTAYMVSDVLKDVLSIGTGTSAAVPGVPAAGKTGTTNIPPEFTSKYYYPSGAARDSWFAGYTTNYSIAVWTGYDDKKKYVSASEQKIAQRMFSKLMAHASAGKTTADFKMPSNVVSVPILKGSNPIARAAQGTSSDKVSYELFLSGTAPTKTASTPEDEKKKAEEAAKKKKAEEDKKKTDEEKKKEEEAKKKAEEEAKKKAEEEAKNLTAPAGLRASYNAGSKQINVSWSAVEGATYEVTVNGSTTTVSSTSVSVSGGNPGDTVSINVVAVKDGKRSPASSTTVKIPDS
Procedure: as §1, §2, §3

[6] = molecular target: T6, purified recombinant Lmo2812 (PBPD2) (Listeria monocytogenes, UniProt Q8Y3M3); experiment: Fluorescent antibiotic binding assay, purified recombinant protein
T6 sequence (Q8Y3M3 entry or part of it): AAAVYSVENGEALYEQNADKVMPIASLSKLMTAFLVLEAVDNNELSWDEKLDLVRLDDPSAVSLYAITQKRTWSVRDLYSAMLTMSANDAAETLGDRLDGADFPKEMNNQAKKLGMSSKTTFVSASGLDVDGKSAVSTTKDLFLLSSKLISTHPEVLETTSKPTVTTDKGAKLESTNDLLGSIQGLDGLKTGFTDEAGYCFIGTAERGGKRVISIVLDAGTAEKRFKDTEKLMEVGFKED
Procedure: The purified protein was incubated with different concentrations of Boc-FL (0.25, 0.5, 2.5, 5 and 10 μM). […] Lmo2812 was the major band on gels, with a slower migrating minor band thought to represent a dimeric form (Figure 2).
Figure 2 Purified recombinant L. monocytogenes Lmo2812 (PBPD2) identified with Boc-FL. Samples of purified recombinant Lmo2812 (10 μg) were labeled with Boc-FL at concentrations of 0 (1), 0.25 (2), 0.5 (3), 2.5 (4), 5 (5) and 10 μM (6). Labeled bands were detected directly on the gel, quantified and their molecular mass estimated. The affinity of the bands for Boc-FL (Kd50) was estimated from their fluorescence as a function of the concentration of Boc-FL. The names of the bands are indicated on the right, and the positions of the molecular weight markers are shown on the left.
The β-lactam binding capacity of Lmo2812 was evaluated with three different fluorescent antibiotics: Boc-FL, Boc-650 and Amp-430.
Total whole cell proteins or purified recombinant protein resuspended in 50 mM NaPi buffer, pH 7.0 were labeled by incubation at 37°C for 30 min with different concentrations of Boc-FL (Molecular Probes), Boc-650 (Molecular Probes) or Amp-430 (prepared in the laboratory by coupling ampicillin to Alexa-430), and then separated on a 10% acrylamide, 3.3% cross-linkage SDS-PAGE gel. To avoid degradation of the fluorescent β-lactam antibiotics by β-lactamases, samples were incubated at 37°C with clavulanic acid at a final concentration of 10 μg/ml or EDTA at a final concentration of 10 mM for 30 min before labeling, where appropriate. Competition experiments were carried out by preincubation of the samples with ampicillin (100 μg/ml) for 30 min at 37°C, before adding the fluorescent antibiotic. The samples were then further incubated for 30 min at 37°C. PBPs were visualized directly on the polyacryloamide gel by fluorescence using a Typhoon 9410 imager (Amersham Biosciences) with excitation wavelengths of 588, 633 or 457 nm and emission filters 520BP40, 670BP30 or 555BP20 for Boc-FL, Boc-650 and Amp-430, respectively. […]

PBPC1 = PBPC1 (Listeria monocytogenes, UniProt Q8Y9I8); experiment: Competition binding assay (ampicillin preincubation, then Boc-FL), whole cells
Procedure: as §1, §2
(§4) Total whole cell proteins or purified recombinant protein resuspended in 50 mM NaPi buffer, pH 7.0 were labeled by incubation at 37°C for 30 min with different concentrations of Boc-FL (Molecular Probes), Boc-650 (Molecular Probes) or Amp-430 (prepared in the laboratory by coupling ampicillin to Alexa-430), and then separated on a 10% acrylamide, 3.3% cross-linkage SDS-PAGE gel. To avoid degradation of the fluorescent β-lactam antibiotics by β-lactamases, samples were incubated at 37°C with clavulanic acid at a final concentration of 10 μg/ml or EDTA at a final concentration of 10 mM for 30 min before labeling, where appropriate. Competition experiments were carried out by preincubation of the samples with ampicillin (100 μg/ml) for 30 min at 37°C, before adding the fluorescent antibiotic. The samples were then further incubated for 30 min at 37°C. PBPs were visualized directly on the polyacryloamide gel by fluorescence using a Typhoon 9410 imager (Amersham Biosciences) with excitation wavelengths of 588, 633 or 457 nm and emission filters 520BP40, 670BP30 or 555BP20 for Boc-FL, Boc-650 and Amp-430, respectively.

PBPC2 = PBPC2 (Listeria monocytogenes, UniProt Q8Y5Y7); experiment: as above
Chain of PBPC2 (Q8Y5Y7 entry or part of it): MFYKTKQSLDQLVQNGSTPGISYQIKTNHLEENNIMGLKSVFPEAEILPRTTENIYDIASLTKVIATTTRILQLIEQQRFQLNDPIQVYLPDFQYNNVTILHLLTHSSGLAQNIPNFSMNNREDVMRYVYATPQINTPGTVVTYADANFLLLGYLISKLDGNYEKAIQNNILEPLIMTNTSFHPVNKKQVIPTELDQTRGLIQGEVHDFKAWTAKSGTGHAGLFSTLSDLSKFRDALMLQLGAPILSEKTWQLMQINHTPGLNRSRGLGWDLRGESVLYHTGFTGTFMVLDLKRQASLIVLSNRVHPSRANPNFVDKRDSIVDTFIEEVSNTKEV
Procedure: as §1, §2, §4

PBPA2 (PBP4) [7] = molecular target: T1, PBPA2 (PBP4); experiment: as above
Procedure: as §1, §2, §4

PBPB3 = PBPB3 (Listeria monocytogenes, UniProt Q8Y9T2); experiment: as above
Chain of PBPB3 (Q8Y9T2 entry or part of it): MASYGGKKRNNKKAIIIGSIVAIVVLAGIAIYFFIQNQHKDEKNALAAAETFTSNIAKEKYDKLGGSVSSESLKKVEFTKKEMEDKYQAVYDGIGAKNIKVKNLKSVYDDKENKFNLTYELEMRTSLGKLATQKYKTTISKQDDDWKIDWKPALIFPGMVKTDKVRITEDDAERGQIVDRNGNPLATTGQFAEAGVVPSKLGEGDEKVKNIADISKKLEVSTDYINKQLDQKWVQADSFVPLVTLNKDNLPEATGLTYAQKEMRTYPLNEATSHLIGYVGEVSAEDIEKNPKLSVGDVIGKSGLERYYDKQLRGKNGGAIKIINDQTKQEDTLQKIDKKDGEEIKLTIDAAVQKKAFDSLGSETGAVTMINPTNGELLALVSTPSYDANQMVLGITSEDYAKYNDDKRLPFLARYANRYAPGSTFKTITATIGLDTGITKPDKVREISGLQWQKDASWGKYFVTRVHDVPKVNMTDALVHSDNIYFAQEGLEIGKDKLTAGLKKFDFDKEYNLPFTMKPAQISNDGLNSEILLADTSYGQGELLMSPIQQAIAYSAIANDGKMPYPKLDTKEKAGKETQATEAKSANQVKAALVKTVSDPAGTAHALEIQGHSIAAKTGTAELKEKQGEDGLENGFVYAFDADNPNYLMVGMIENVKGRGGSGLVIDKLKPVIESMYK
Procedure: as §1, §2, §4

PBPB2 (PBP2) [8] = molecular target: T2, PBPB2 (PBP2); experiment: as above
Procedure: as §1, §2, §4

PBPB1 (PBP3) [9] = molecular target: T3, PBPB1 (PBP3); experiment: as above
Procedure: as §1, §2, §4

PBPD1 (PBP5) [10] = molecular target: T4, PBPD1 (PBP5); experiment: as above
Procedure: as §1, §2, §4

PBPA1 (PBP1) [11] = molecular target: T5, PBPA1 (PBP1); experiment: as above
Procedure: as §1, §2, §4

[12] = molecular target: T6, purified recombinant Lmo2812 (PBPD2); experiment: Competition binding assay (ampicillin preincubation, then Boc-FL), purified recombinant protein; conditions: purified recombinant Lmo2812 preincubated with 100 μg/ml ampicillin
Procedure: as §4

L. monocytogenes EGD = experiment: Microdilution MIC test; format: cell-based, Listeria monocytogenes; conditions: Listeria monocytogenes
Procedure: (§5) To determine the effect of these mutations on cell morphology, the strains EGD, KD2812 and DA07 were analyzed by scanning electron microscopy (SEM). […] At 30°C the average cell length compared to strain EGD was increased by 38.5% in strain KD2812 and by 44.8% in the double mutant strain. The respective values at 37°C were 37.5% and 43%. […] The variant cells were characteristically curved with a bend at either one or both ends and subterminal constrictions. The number of cells with altered morphology was increased as the growth temperature was raised (Figure 3; b, e, h). Cell bending was more pronounced in the population of AD07 mutant cells (Figure 3; c, f, i). […] Similar results were found for a mutant of L. monocytogenes lacking PBP5 (PBPD1) examined in a previous study.
(§6) Microdilution tests were performed using cation-adjusted Mueller-Hinton broth (CAMHB) supplemented with 5% lysed horse blood containing two-fold dilutions of the antimicrobial agents. These mixtures were dispensed in 100 μl aliquots into plastic 96-well plates. To prepare inocula, a single colony of each strain from a TSBYE plate was transferred into 10 ml of the same medium and incubated for 24 h at 37°C. These cultures were serially diluted in CAMHB to a concentration of 10^5 cfu/ml and 100 μl aliquots were added to the microdilution plates. The plates were incubated for 18-20 h at 37°C before the reading of the MIC endpoints. The MIC was the lowest antibiotic concentration at which visible growth was inhibited.

[13] = test system: L. monocytogenes KD2812 (Δlmo2812); experiment: Microdilution MIC test; format: cell-based, Listeria monocytogenes; conditions: Listeria monocytogenes
Procedure: as §5, §6

[14] = test system: L. monocytogenes AD07 (Δlmo2812 Δlmo2754); experiment: Microdilution MIC test; format: cell-based, Listeria monocytogenes; conditions: Listeria monocytogenes
Procedure: as §5, §6

[15] = ampicillin 100 μg/ml, 50 μM Boc-FL, Figure 1 lane 8 vs lane 7
[16] = preincubated with 100 μg/ml ampicillin, then 50 μM Boc-FL

T1 sequence (Q8Y547 entry or part of it): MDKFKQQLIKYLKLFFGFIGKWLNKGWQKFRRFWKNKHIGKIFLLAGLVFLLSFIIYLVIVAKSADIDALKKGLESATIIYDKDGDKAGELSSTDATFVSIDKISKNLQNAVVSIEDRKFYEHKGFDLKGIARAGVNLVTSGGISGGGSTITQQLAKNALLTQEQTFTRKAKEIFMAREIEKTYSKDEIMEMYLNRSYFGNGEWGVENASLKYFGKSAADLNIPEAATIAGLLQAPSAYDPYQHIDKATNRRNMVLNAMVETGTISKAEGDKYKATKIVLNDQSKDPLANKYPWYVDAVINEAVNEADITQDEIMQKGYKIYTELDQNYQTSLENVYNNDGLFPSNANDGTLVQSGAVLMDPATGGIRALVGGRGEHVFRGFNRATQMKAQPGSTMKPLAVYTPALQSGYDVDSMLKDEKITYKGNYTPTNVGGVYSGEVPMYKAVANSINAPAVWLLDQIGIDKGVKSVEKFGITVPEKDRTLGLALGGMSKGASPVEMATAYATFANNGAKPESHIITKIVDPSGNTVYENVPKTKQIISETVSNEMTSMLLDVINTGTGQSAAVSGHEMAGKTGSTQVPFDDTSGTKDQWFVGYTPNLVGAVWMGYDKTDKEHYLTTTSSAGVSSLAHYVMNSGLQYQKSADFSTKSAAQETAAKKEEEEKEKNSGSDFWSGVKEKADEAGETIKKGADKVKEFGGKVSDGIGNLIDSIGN

Cc1cc(C)n2c1C=C1C=CC(CCC(=O)Nc3ccc(OCC(=O)N[C@@H]4C(=O)N5[C@@H]4SC(C)(C)[C@@H]5C(=O)O)cc3)=[N+]1[B-]2(F)F [Boc-FL, Bocillin-FL]
Kd (PBPA2 (PBP4) [1]): 250 nM | Kd (PBPB2 (PBP2) [2]): 250 nM | Kd (PBPB1 (PBP3) [3]): 250 nM | Kd (PBPD1 (PBP5) [4]): 5000 nM | Kd (PBPA1 (PBP1) [5]): > 10000 nM | Kd [6]: 2500 nM

CC1(C)S[C@@H]2[C@H](NC(=O)[C@H](N)c3ccccc3)C(=O)N2[C@H]1C(=O)O [ampicillin]
binding of ampicillin (disappearance of Boc-FL band) (PBPC1; [15]): no binding | percentage of Boc-FL binding capacity remaining (PBPC1; [16]): 100% | binding of ampicillin (disappearance of Boc-FL band) (PBPC2; [15]): no binding | percentage of Boc-FL binding capacity remaining (PBPC2; [16]): 100% | binding of ampicillin (disappearance of Boc-FL band) (PBPA2 (PBP4) [7]; [15]): partial | percentage of Boc-FL binding capacity remaining (PBPA2 (PBP4) [7]; [16]): 90% | binding of ampicillin (disappearance of Boc-FL band) (PBPB3; [15]): partial | percentage of Boc-FL binding capacity remaining (PBPB3; [16]): 95% | binding of ampicillin (disappearance of Boc-FL band) (PBPB2 (PBP2) [8]; [15]): partial | percentage of Boc-FL binding capacity remaining (PBPB2 (PBP2) [8]; [16]): 90% | inhibition of Boc-FL binding (PBPB1 (PBP3) [9]; Amp at 100 μg/ml): completely inhibited | binding of ampicillin (disappearance of Boc-FL band) (PBPB1 (PBP3) [9]; [15]): total | percentage of Boc-FL binding capacity remaining (PBPB1 (PBP3) [9]; [16]): 0% | inhibition of Boc-FL binding (PBPD1 (PBP5) [10]; Amp at 100 μg/ml): completely inhibited | binding of ampicillin (disappearance of Boc-FL band) (PBPD1 (PBP5) [10]; [15]): total | percentage of Boc-FL binding capacity remaining (PBPD1 (PBP5) [10]; [16]): 0% | binding of ampicillin (disappearance of Boc-FL band) (PBPA1 (PBP1) [11]; [15]): partial | percentage of Boc-FL binding capacity remaining (PBPA1 (PBP1) [11]; [16]): 95% | percentage of Boc-FL binding capacity remaining [12]: 0^b % | MIC (L. monocytogenes EGD): 0.31 µg/mL (≈ 0.887 µM) | MIC [13]: 0.31 µg/mL (≈ 0.887 µM) | MIC [14]: 0.16 µg/mL (≈ 0.458 µM)

Source: paper PMC2949700, “Identification of the full set of Listeria monocytogenes penicillin-binding proteins and characterization of PBPD2 (Lmo2812)” (BMC Microbiology, 2010)
